From patent US20260116884A1, “PROTAC CHIMERIC COMPOUND, PREPARATION METHOD THEREFOR AND USE THEREOF” (HANGZHOU ZHONGMEIHUADONG PHARMACEUTICAL CO., LTD., priority 2022, published 2026)

Molecular target: human HPK1 (Homo sapiens, UniProt Q92918)
Experiment: HPK1 protein degradation assay (WB) in RAMOS cell line
Type: cell-based
Parameters: The RAMOS cell line was selected as the degradation cell line; endogenous in cells; host or cells: RAMOS
Conditions: RAMOS cells, 16 h, Western blot
Description: Degradation of HPK1 proteins and DC50/Dmax were determined by the WB method in order to evaluate the in vitro degradative ability of the compound.
The RAMOS cell line was selected as the degradation cell line. Incubation Conditions: RMPI 1640 culture medium supplemented with 10% FBS, 37° C., 5% CO2.
• (1) Plating cells: in a 6 cm dish with 4 ml of the culture medium, cells plated at 2×10^6 cells/dish. • (2) Drug addition: the compound (stock solution concentration: 10 mM) was diluted with DMSO in a dilution plate, with a maximum starting concentration of 10 μM and 7 concentration gradient points (3-fold dilution). 4 μl of each diluted solution was taken, added to a dish, and incubated for 16 h. • (3) Cells were harvested, added with a lysis buffer, and centrifuged at 12000 rpm/min for 20 min. The supernatant was collected. After quantification using a BCA quantification kit, 5× loading buffer was added to denature for 10 min. • (4) 10 μg of denatured protein was added to the SDS-PAGE gel. After electrophoresis and membrane transfer, the plate was blocked with 5% BSA for 1 h, incubate with the primary antibody at 4° C. overnight. After washing off the primary antibody, the secondary antibody was added, incubated at room temperature for 1 h, and washed off.
Imaging: the membranes were scanned with a two-color fluorescence imaging system.

Sequence of human HPK1 (Q92918 whole entry): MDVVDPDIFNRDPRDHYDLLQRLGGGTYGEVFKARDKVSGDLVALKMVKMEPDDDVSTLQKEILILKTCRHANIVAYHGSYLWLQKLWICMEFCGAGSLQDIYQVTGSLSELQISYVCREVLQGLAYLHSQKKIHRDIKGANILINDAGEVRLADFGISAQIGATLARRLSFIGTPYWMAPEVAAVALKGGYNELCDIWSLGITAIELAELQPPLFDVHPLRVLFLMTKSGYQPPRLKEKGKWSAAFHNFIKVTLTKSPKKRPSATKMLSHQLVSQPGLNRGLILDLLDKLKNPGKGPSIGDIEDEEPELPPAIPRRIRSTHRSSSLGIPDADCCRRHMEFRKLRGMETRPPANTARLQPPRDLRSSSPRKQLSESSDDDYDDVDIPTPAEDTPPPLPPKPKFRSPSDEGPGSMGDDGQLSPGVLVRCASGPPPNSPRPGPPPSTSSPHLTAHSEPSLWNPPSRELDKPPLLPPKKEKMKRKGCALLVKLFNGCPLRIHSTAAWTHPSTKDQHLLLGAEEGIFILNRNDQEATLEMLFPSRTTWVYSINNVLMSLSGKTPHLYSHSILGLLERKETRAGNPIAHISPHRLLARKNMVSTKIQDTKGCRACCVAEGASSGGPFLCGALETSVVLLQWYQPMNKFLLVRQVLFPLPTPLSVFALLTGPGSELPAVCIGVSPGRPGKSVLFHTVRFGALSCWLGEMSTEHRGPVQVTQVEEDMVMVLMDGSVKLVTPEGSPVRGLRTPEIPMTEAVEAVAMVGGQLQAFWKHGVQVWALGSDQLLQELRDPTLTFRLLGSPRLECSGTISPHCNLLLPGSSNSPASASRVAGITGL

CCN1CCC(n2cc(-c3c[nH]c4ncc(-c5ccc(N6CCC(CN7CCN(C(=O)c8ccc(Cl)c(N9CCC(=O)NC9=O)c8)CC7)CC6)nc5)nc34)cn2)CC1 [Compound C084]
DC50: 1.21 nM
Dmax: 93%

CCN1CCC(n2cc(-c3c[nH]c4ncc(-c5ccc(N6CCC(CC7CCCN(C(=O)c8ccc(Cl)c(N9CCC(=O)NC9=O)c8)CC7)CC6)nc5)nc34)cn2)CC1 (centres unmarked) [Compound C085]
DC50: 385 nM
Dmax: 56.4%

CCN1CCC(n2cc(-c3c[nH]c4ncc(-c5ccc(N6CCC(CC7CCN(C(=O)c8ccc(Cl)c(N9CCC(=O)NC9=O)c8)CC7)CC6)nc5)nc34)cn2)CC1 [Compound C092]
DC50: 21.4 nM

CCN1CCC(n2cc(-c3c[nH]c4ncc(-c5ccc(N6CCC(CC7CCN(C(=O)c8ccc(Cl)c(N9CCC(=O)NC9=O)c8)CC7C)CC6)cc5)nc34)cn2)CC1 (centres unmarked) [Compound C115]
DC50: 23.5 nM
Dmax: 66.4%

CCN1CCC(n2cc(-c3c[nH]c4ncc(-c5ccc(N6CCC(F)(CN7CCN(C(=O)c8ccc(Cl)c(N9CCC(=O)NC9=O)c8)CC7)CC6)cc5)nc34)cn2)CC1 [Compound C137]
DC50: 230 nM
Dmax: 58.4%

Cn1cc(-c2c[nH]c3ncc(-c4ccc(N5CCC(CC6CCN(C(=O)c7ccc(Cl)c(N8CCC(=O)NC8=O)c7)CC6)CC5)cc4)nc23)cn1 [Compound C140]
DC50: 198 nM
Dmax: 50.7%

O=C1CCN(c2cc(C(=O)N3CCC(CC4CCN(c5ccc(-c6cnc7[nH]cc(-c8cnn(C(F)F)c8)c7n6)cn5)CC4)CC3)ccc2Cl)C(=O)N1 [Compound C167]
DC50: 23.9 nM
Dmax: 66.8%

O=C1CCN(c2cc(C(=O)N3CCC(CC4CCN(c5ccc(-c6cnc7[nH]cc(-c8cnn(CC9CC9)c8)c7n6)cn5)CC4)CC3)ccc2Cl)C(=O)N1 [Compound C177]
DC50: 632 nM
Dmax: 51.6%

CC(C)(C#N)n1cc(-c2c[nH]c3ncc(-c4ccc(N5CCC(CC6CCN(C(=O)c7ccc(Cl)c(N8CCC(=O)NC8=O)c7)CC6)CC5)nc4)nc23)cn1 [Compound C181]
DC50: 214 nM
Dmax: 64.4%

O=C1CCN(c2cc(C(=O)N3CCC(CC4CCN(c5ccc(-c6cnc7[nH]cc(-c8cnn(CC(F)(F)F)c8)c7n6)cn5)CC4)CC3)ccc2Cl)C(=O)N1 [Compound C196]
Dmax: 93.8%

O=C1CCN(c2cc(C(=O)N3CCC(CC4CCN(c5ccc(-c6cnc7[nH]cc(-c8cn[nH]c8)c7n6)cn5)CC4)CC3)ccc2Cl)C(=O)N1 [Compound C198]
DC50: 32.9 nM
Dmax: 91.8%

O=C1CCN(c2cc(C(=O)N3CCC(CC4CCN(c5ccc(-c6cnc7[nH]cc(-c8cnn([C@@H]9CCOC9)c8)c7n6)cn5)CC4)CC3)ccc2Cl)C(=O)N1 [Compound C199]
DC50: 83 nM
Dmax: 83.8%

Cn1cc(-c2c[nH]c3ncc(-c4cnc(N5CCC(CC6CCN(C(=O)c7ccc(Cl)c(N8CCC(=O)NC8=O)c7)CC6)CC5)nc4)nc23)cn1 [Compound C203]
DC50: 5.99 nM
Dmax: 91.7%

Cc1ccc(C(=O)N2CCC(CC3CCN(c4ncc(-c5cnc6[nH]cc(-c7cnn(C)c7)c6n5)cn4)CC3)CC2)cc1N1CCC(=O)NC1=O [Compound C204]
DC50: 58 nM
Dmax: 85.4%

CCc1c[nH]c2ncc(-c3ccc(N4CCC(CC5CCN(C(=O)c6ccc(Cl)c(N7CCC(=O)NC7=O)c6)CC5)CC4)nc3)nc12 [Compound C205]
DC50: 89.9 nM
Dmax: 83%

Cn1cc(-c2c[nH]c3ncc(-c4ccc(N5CCC(CC6CCN(C(=O)c7ccc(Cl)c(C8CCC(=O)NC8=O)c7)CC6)CC5)nc4)nc23)cn1 (centres unmarked) [Compound C206]
DC50: 190 nM
Dmax: 73%

O=C1CCC(c2cc(C(=O)N3CCC(CC4CCN(c5ccc(-c6cnc7[nH]cc(-c8cnn(CCO)c8)c7n6)cn5)CC4)CC3)ccc2Cl)C(=O)N1 (centres unmarked) [Compound C209]
DC50: 29 nM
Dmax: 84%
